Measurements taken from patent US20060135624A1, “Natural compound useful for treating diabetes, its preparation and use” (JINGYU LIANG ET AL, priority 2002, published 2006).

Columns and labels:
[1] = test system: blood-sugar level of normal mice; assay: Effect of Sequoyitol on blood-sugar level of normal mice; format: in vivo, Kunming mice; conditions: Glibenclamide 50 mg/kg oral 7 days
Experimental: 1. Experimental Method^[3] • 60 Mice were randomly divided into 5 groups, […] according to 0.1 ml/10 g of body weight, respectively, and the normal group was administrated with the same volum of the same volum of distilled water. These administrations were conducted for continuous 7 days. The blood-sugar levels were detected by glucose oxidase method.

[2] = test system: mouse hyperglycemia induced by adrenalin; assay: Effect of Sequoyitol on mouse hyperglycemia induced by adrenalin; format: in vivo, Kunming mice; conditions: Glibenclamide 10 mg/kg oral 7 days
Experimental: 1. Experimental Methods^[3] • 72 Mice were randomly divided into 6 groups, wherein 4 groups were orally administrated with 25, 50 and 100 mg/kg of Sequoyitol and 10 mg/kg of Glibenclamide according to 0,1 ml/10 g of body weight, respectively, and the normal group and modeling group were administrated with the same volum of distilled water. These administrations were conducted for continuous 7 days. The normal group was administrated with the same volum of physiological saline by injection, while other groups were administrated with 0.2 mg/kg of adrenalin by intra-abdominal injection. The blood-sugar levels were detected by glucose oxidase method after 30 minutes of administration. The livers of the mice were collected, and hepatic glycogen levels were detected by anthrone method.

[3] = test system: mouse hyperglycemia induced by alloxan; assay: Time-effect relation of Sequoyitol to mouse hyperglycemia induced by alloxan; format: in vivo, Kunming mice; conditions: phenformine 75 mg/kg p.o. 7 days
Experimental: 1. Experimental Methods^[1,2] • Alloxan was administrated to each of 30 mice by caudal vein injection with a dose of 65 mg/kg, and the mice were modeled according to the method of documents, divided into 3 groups according to blood-sugar values, […] according to […] of body weight, and the modeling group was administrated with the same volum of distilled water, separately. These administrations were conducted for continuous 7 days, and the mice were fasted for 2 hours before the last administration, and their blood-sugar levels were detected by glucose oxidase method at 1 2, 3 and 5 hours after the last administration.

[4] = test system: mouse hyperglycemia induced by alloxan; assay: Effects of Sequoyitol on mouse hyperglycemia induced by alloxan; format: in vivo, Kunming mice; conditions: phenformine 75 mg/kg p.o. 7 days
Experimental: 1. Experimental Methods^[1,2] • Among 60 mice, 10 mice were randomly selected as normal group, and the residual mice were administrated with 65 mg/kg alloxan by caudal vein injection, modeled according to the method of documents, and divided into 5 groups according to blood-sugar values, wherein 4 groups were perorally administrated with 25, 50 and 100 mg/kg of Sequoyitol and 75 mg/kg of phenformine according to 0.1 ml/10 g of body weight, respectively, and the normal group and modeling group were administrated with the same volum of distilled water, separately. These administrations were conducted for continuous 7 days. The blood-sugar levels were detected by glucose oxidase method. The pancreatic glands of the mice were soaked in 10% formalin, embedded with paraffin, sliced, and dyed with HE dye.

[5] = test system: mouse hyperglycemia induced by glucose; assay: Effect of Sequoyitol on mouse hyperglycemia induced by glucose; format: in vivo, Kunming mice; conditions: phenformine 75 mg/kg oral 7 days; 30, 60, 90, 120 minutes after i.p. glucose
Experimental: 1. Experimental Method^[4] • 72 Mice were randomly divided into 6 groups, […] according to 0.1 ml/10 g of body weight, respectively, and the normal group and modeling group were administrated with the same volum of distilled water. These administrations were conducted for continuous 7 days. The normal group was administrated with the same volum of physiological saline by injection, while other groups were administrated with […] of glucose by intra-abdominal injection. After 30, 60, 90 and 120 minutes of administration, bloods were collected from venous plexus behind fossa orbitalis, the serums were separated, and the blood-sugar levels were separately detected by glucose oxidase method.

[6] = test system: rat hyperglycemia induced by alloxan; assay: Effect of Sequoyitol on rat hyperglycemia induced by alloxan; format: in vivo, SD rats
Experimental: 1. Experimental Methods^[5,6] • 5 Rats were randomly selected as normal group, the other 55 rats were fasted for 14-16 hours, administrated with 30 mg/kg of Pentobarbital by intra-abdominal injection. After paralyzed, the rats were administrated with 48 mg/kg of alloxan by vena femoralis injection, modeled according to methods of documents, and divided into 5 groups according to blood-sugar level, wherein each group had 11 rats, and 4 groups were orally administrated with 25, 50 and 100 mg/kg of Sequoyitol and 75 mg/kg of phenformine according to 1 ml/100 g of body weight, respectively, and the normal group and modeling group were administrated with the same volum of distilled water. These administrations were conducted for continuous 18 days. The fasting blood-sugar levels of the rats were separately measured at 6th and 12th day after the administration. At the 18th day, blood was collected from arteria femoralis, and the blood sugar level, insulin level, cholesterol content, triglyceride content, malonaldehyde content, and hepatocuprein activity of serum were measured; liver tissue was homogenated, and the malonaldehyde content, and hepatocuprein activity of liver tissue were measured; and pancreatic gland was soaked in 10% formalin, embedded with paraffin, sliced, and dyed with HE.

[7] = test system: mouse hyperglycemia induced by Streptozocin; assay: Effect of Sequoyitol on mouse hyperglycemia induced by Streptozocin; format: in vivo, Kunming mice
Experimental: 1. Experimental Methods^[7,8] • Among 66 mice, 10 mice were randomly selected as normal group, and the residual mice were administrated with 160 mg/kg Streptozocin by vena caudalis injection, modeled according to methods of documents, and divided into 5 groups according to blood-sugar level, wherein 4 groups were perorally administrated with 25, 50 and 100 mg/kg of Sequoyitol and 75 mg/kg of phenformine according to 0.1 ml/10 g of body weight, respectively, and the normal group and modeling group were administrated with the same volum of distilled water. These administrations were conducted for continuous 18 days. The blood-sugar levels of the mice were separately measured at 6th and 12th day after the administration. At the 18th day, blood was collected by excising eyeballs, serum was separated, and the blood sugar level, insulin level, cholesterol content, triglyceride content, malonaldehyde content, and hepatocuprein activity of serum were measured; liver tissue was homogenated, and the malonaldehyde content and hepatocuprein activity of liver tissue were measured; and pancreatic gland was soaked in 10% formalin, embedded with paraffin, sliced, and dyed with HE.

[8] = phenformine 75 mg/kg oral 18 days
[9] = phenformine 75 mg/kg p.o. 18 days

COc1ccc(Cl)cc1C(=O)NCCc1ccc(S(=O)(=O)NC(=O)NC2CCCCC2)cc1 [Glibenclamide, reference compound]
blood-sugar level decreased compared to the normal group [1]: 19.3 mg/dL
blood-sugar level decreased compared to the control group ([2]; 30 minutes after adrenalin 0.2 mg/kg i.p.): 40.1 mg/dL
hepatic glycogen level increased compared to the control group ([2]; adrenalin model): 1.28 mg/g of liver tissue

[H]/N=C(/N)N/C(=N/[H])NCCc1ccccc1 [phenformine, reference compound]
blood-sugar level decreased compared to the control group ([3]; 1 hour after last administration): 163.1 mg/dL
blood-sugar level decreased compared to the control group ([3]; 2 hours after last administration): 159.3 mg/dL
blood-sugar level decreased compared to the control group ([3]; 3 hours after last administration): 104.2 mg/dL
blood-sugar level decreased compared to the control group ([3]; 5 hours after last administration): 56.6 mg/dL
blood-sugar level decreased compared to the control group [4]: 152.8 mg/dL
number of pancreatic islands and number of islet cells (histopathologic examination) compared to the model group [4]: increased slightly
glucose-induced hyperglycemia compared to the control group [5]: highly significantly alleviated
body weight of rats compared to the control group ([6]; phenformine 75 mg/kg oral): did not significantly change
activity of hepatocuprein in liver tissue compared to the control group [6, 8]: did not significantly change
activity of hepatocuprein in serum compared to the control group [6, 8]: did not significantly change
content of cholesterol in serum compared to the control group [6, 8]: did not significantly change
content of malonaldehyde in liver tissue compared to the control group [6, 8]: decreased slightly
content of malonaldehyde in serum compared to the control group [6, 8]: decreased slightly
content of triglyceride in serum compared to the control group [6, 8]: did not significantly change
serum insulin level compared to the control group [6, 8]: increased
alloxan-induced hyperglycemia compared to the control group ([6]; phenformine 75 mg/kg oral, since the 6th day): highly significantly alleviated
body weight of mice compared to the control group ([7]; phenformine 75 mg/kg p.o.): did not significantly change
activity of hepatocuprein in serum compared to the control group [7, 9]: did not significantly change
content of cholesterol in serum compared to the control group [7, 9]: did not significantly change
content of malonaldehyde in liver tissue compared to the control group [7, 9]: did not significantly change
content of triglyceride in serum compared to the control group [7, 9]: did not significantly change
hyalinization of interstitial small vessels (histopathologic examination) [7, 9]: not alleviated
number of pancreatic islands and number of cells in pancreatic islands (histopathologic examination) [7, 9]: slightly increased
serum insulin level compared to the control group [7, 9]: increased
Streptozocin-induced hyperglycemia compared to the control group ([7]; phenformine 75 mg/kg p.o., 12th day): significantly alleviated
